Data from patent US4442044A, “Process for preparing monoesters and diesters of N-alkyl substituted amino methyl phosphonic acid” (priority 1983, dated 1984).

Experiments:
Type in all cases: in vivo
[1] = test system: Canada Thistle; assay: post-emergent herbicidal activity, greenhouse; conditions: Table I, 4 WAT
Procedure, shortened: (§1)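 Post-emergence foliar spray at tabulated application rates, using aliquots of a 1.0% stock in acetone, THF or water plus ~0.4% emulsifier, applied to 2–3-week-old greenhouse plants. Plant injury was rated relative to controls roughly two and four weeks after treatment.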

[2] = test system: Cocklebur; assay: post-emergent herbicidal activity, greenhouse
Procedure, shortened: as §1

[3] = test system: Crabgrass; assay: post-emergent herbicidal activity, greenhouse; conditions: Table II
Procedure, shortened: as §1

[4] = test system: Downy Brome; assay: post-emergent herbicidal activity, greenhouse
Procedure, shortened: as §1

[5] = test system: Lambsquarters; assay: post-emergent herbicidal activity, greenhouse
Procedure, shortened: as §1

[6] = test system: Morningglory; assay: post-emergent herbicidal activity, greenhouse
Procedure, shortened: as §1

[7] = test system: Panicum Spp; assay: post-emergent herbicidal activity, greenhouse; conditions: Table II
Procedure, shortened: as §1

[8] = test system: Quackgrass; assay: post-emergent herbicidal activity, greenhouse; conditions: Table I, 4 WAT
Procedure, shortened: as §1

[9] = test system: Rice; assay: post-emergent herbicidal activity, greenhouse; conditions: Table II
Procedure, shortened: as §1

[10] = test system: Sorghum; assay: post-emergent herbicidal activity, greenhouse; conditions: Table II
Procedure, shortened: as §1

[11] = test system: Velvetleaf; assay: post-emergent herbicidal activity, greenhouse
Procedure, shortened: as §1

[12] = test system: Yellow Nutsedge; assay: post-emergent herbicidal activity, greenhouse; conditions: Table I, 4 WAT
Procedure, shortened: as §1

[13] = test system: Barnyardgrass; assay: pre-emergent herbicidal activity, soil incorporation; conditions: Table III, 2 WAT, 11.2 kg/h
Procedure, shortened: (§2)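 Seeds or propagules pressed onto compacted top soil in pans; covering soil admixed with formulation of known active-ingredient amount, then filled and leveled. Pans sub-irrigated on wet sand bench ~two weeks under ordinary sunlight. Emerged plants counted versus untreated control; activity index from average percent control per species.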

[14] = test system: Canada Thistle; assay: as above; conditions: Table III, 2 WAT, 11.2 kg/h
Procedure, shortened: as §2

[15] = test system: Cocklebur; assay: as above; conditions: Table III, 2 WAT, 11.2 kg/h
Procedure, shortened: as §2

[16] = test system: Downy Brome; assay: as above; conditions: Table III, 2 WAT, 11.2 kg/h
Procedure, shortened: as §2

[17] = test system: Johnsongrass; assay: as above; conditions: Table III, 2 WAT, 11.2 kg/h
Procedure, shortened: as §2

[18] = test system: Lambsquarters; assay: as above; conditions: Table III, 2 WAT, 11.2 kg/h
Procedure, shortened: as §2

[19] = test system: Morningglory; assay: as above; conditions: Table III, 2 WAT, 11.2 kg/h
Procedure, shortened: as §2

[20] = test system: Quackgrass; assay: as above; conditions: Table III, 2 WAT, 11.2 kg/h
Procedure, shortened: as §2

[21] = test system: Smartweed; assay: as above; conditions: Table III, 2 WAT, 11.2 kg/h
Procedure, shortened: as §2

[22] = test system: Velvetleaf; assay: as above; conditions: Table III, 2 WAT, 11.2 kg/h
Procedure, shortened: as §2

[23] = test system: Yellow Nutsedge; assay: as above; conditions: Table III, 2 WAT, 11.2 kg/h
Procedure, shortened: as §2

**Q.** Which results are given for CC(C#N)OP(=O)(O)CNCC(=O)OCc1ccccc1 (stereo not drawn) [Example 10, glycine, N-[[(1-cyanoethoxy)hydroxyphosphinyl]methyl]-,phenylmethyl ester]?
**A.** post-emergent herbicidal activity index ([1]; 5.6 kg/h): 1 (25-49% control); post-emergent herbicidal activity index ([1]; 11.2 kg/h): 2 (50-74% control); post-emergent herbicidal activity index ([2]; Table I, 4 WAT, 5.6 kg/h): 2 (50-74% control); post-emergent herbicidal activity index ([2]; Table I, 4 WAT, 11.2 kg/h): 2 (50-74% control); post-emergent herbicidal activity index ([2]; Table II, 2 WAT, 0.011 kg/h): 0 (0-24% control); post-emergent herbicidal activity index ([2]; Table II, 2 WAT, 0.056 kg/h): 0 (0-24% control); post-emergent herbicidal activity index ([2]; Table II, 4 WAT, 0.28 kg/h): 1 (25-49% control); post-emergent herbicidal activity index ([2]; Table II, 4 WAT, 1.12 kg/h): 2 (50-74% control); post-emergent herbicidal activity index ([2]; Table II, 4 WAT, 5.6 kg/h): 3 (75-99% control); post-emergent herbicidal activity index ([3]; 2 WAT, 0.011 kg/h): 0 (0-24% control); post-emergent herbicidal activity index ([3]; 2 WAT, 0.056 kg/h): 1 (25-49% control); post-emergent herbicidal activity index ([3]; 4 WAT, 0.28 kg/h): 4 (100% control); post-emergent herbicidal activity index ([3]; 4 WAT, 1.12 kg/h): 4 (100% control); post-emergent herbicidal activity index ([3]; 4 WAT, 5.6 kg/h): 4 (100% control); post-emergent herbicidal activity index ([4]; Table I, 4 WAT, 5.6 kg/h): 2 (50-74% control); post-emergent herbicidal activity index ([4]; Table I, 4 WAT, 11.2 kg/h): 1 (25-49% control); post-emergent herbicidal activity index ([4]; Table II, 2 WAT, 0.011 kg/h): 0 (0-24% control); post-emergent herbicidal activity index ([4]; Table II, 2 WAT, 0.056 kg/h): 0 (0-24% control); post-emergent herbicidal activity index ([4]; Table II, 4 WAT, 0.28 kg/h): 1 (25-49% control); post-emergent herbicidal activity index ([4]; Table II, 4 WAT, 1.12 kg/h): 2 (50-74% control); post-emergent herbicidal activity index ([4]; Table II, 4 WAT, 5.6 kg/h): 2 (50-74% control); post-emergent herbicidal activity index ([5]; Table I, 4 WAT, 5.6 kg/h): 3 (75-99% control); post-emergent herbicidal activity index ([5]; Table I, 4 WAT, 11.2 kg/h): 3 (75-99% control); post-emergent herbicidal activity index ([5]; Table II, 2 WAT, 0.011 kg/h): 0 (0-24% control); post-emergent herbicidal activity index ([5]; Table II, 2 WAT, 0.056 kg/h): 1 (25-49% control); post-emergent herbicidal activity index ([5]; Table II, 4 WAT, 0.28 kg/h): 2 (50-74% control); post-emergent herbicidal activity index ([5]; Table II, 4 WAT, 1.12 kg/h): 3 (75-99% control); post-emergent herbicidal activity index ([5]; Table II, 4 WAT, 5.6 kg/h): 3 (75-99% control); post-emergent herbicidal activity index ([6]; Table I, 4 WAT, 5.6 kg/h): 2 (50-74% control); post-emergent herbicidal activity index ([6]; Table I, 4 WAT, 11.2 kg/h): 2 (50-74% control); post-emergent herbicidal activity index ([6]; Table II, 2 WAT, 0.011 kg/h): 0 (0-24% control); post-emergent herbicidal activity index ([6]; Table II, 2 WAT, 0.056 kg/h): 0 (0-24% control); post-emergent herbicidal activity index ([6]; Table II, 4 WAT, 0.28 kg/h): 2 (50-74% control); post-emergent herbicidal activity index ([6]; Table II, 4 WAT, 1.12 kg/h): 2 (50-74% control); post-emergent herbicidal activity index ([6]; Table II, 4 WAT, 5.6 kg/h): 2 (50-74% control); post-emergent herbicidal activity index ([7]; 2 WAT, 0.011 kg/h): 0 (0-24% control); post-emergent herbicidal activity index ([7]; 2 WAT, 0.056 kg/h): 0 (0-24% control); post-emergent herbicidal activity index ([7]; 4 WAT, 0.28 kg/h): 3 (75-99% control); post-emergent herbicidal activity index ([7]; 4 WAT, 1.12 kg/h): 4 (100% control); post-emergent herbicidal activity index ([7]; 4 WAT, 5.6 kg/h): 4 (100% control); post-emergent herbicidal activity index ([8]; 5.6 kg/h): 2 (50-74% control); post-emergent herbicidal activity index ([8]; 11.2 kg/h): 2 (50-74% control); post-emergent herbicidal activity index ([9]; 2 WAT, 0.011 kg/h): 0 (0-24% control); post-emergent herbicidal activity index ([9]; 2 WAT, 0.056 kg/h): 0 (0-24% control); post-emergent herbicidal activity index ([9]; 4 WAT, 0.28 kg/h): 0 (0-24% control); post-emergent herbicidal activity index ([9]; 4 WAT, 1.12 kg/h): 1 (25-49% control); post-emergent herbicidal activity index ([9]; 4 WAT, 5.6 kg/h): 2 (50-74% control); post-emergent herbicidal activity index ([10]; 2 WAT, 0.011 kg/h): 0 (0-24% control); post-emergent herbicidal activity index ([10]; 2 WAT, 0.056 kg/h): 0 (0-24% control); post-emergent herbicidal activity index ([10]; 4 WAT, 0.28 kg/h): 2 (50-74% control); post-emergent herbicidal activity index ([10]; 4 WAT, 1.12 kg/h): 2 (50-74% control); post-emergent herbicidal activity index ([10]; 4 WAT, 5.6 kg/h): 3 (75-99% control); post-emergent herbicidal activity index ([11]; Table I, 4 WAT, 5.6 kg/h): 3 (75-99% control); post-emergent herbicidal activity index ([11]; Table I, 4 WAT, 11.2 kg/h): 3 (75-99% control); post-emergent herbicidal activity index ([11]; Table II, 2 WAT, 0.011 kg/h): 0 (0-24% control); post-emergent herbicidal activity index ([11]; Table II, 2 WAT, 0.056 kg/h): 0 (0-24% control); post-emergent herbicidal activity index ([11]; Table II, 4 WAT, 0.28 kg/h): 1 (25-49% control); post-emergent herbicidal activity index ([11]; Table II, 4 WAT, 1.12 kg/h): 1 (25-49% control); post-emergent herbicidal activity index ([11]; Table II, 4 WAT, 5.6 kg/h): 1 (25-49% control); post-emergent herbicidal activity index ([12]; 5.6 kg/h): 1 (25-49% control); post-emergent herbicidal activity index ([12]; 11.2 kg/h): 1 (25-49% control); pre-emergent herbicidal activity index [13]: 0 (1-24% control); pre-emergent herbicidal activity index [14]: 3 (75-100% control); pre-emergent herbicidal activity index [15]: 0 (1-24% control); pre-emergent herbicidal activity index [16]: 0 (1-24% control); pre-emergent herbicidal activity index [17]: 2 (50-74% control); pre-emergent herbicidal activity index [18]: 0 (1-24% control); pre-emergent herbicidal activity index [19]: 0 (1-24% control); pre-emergent herbicidal activity index [20]: 0 (1-24% control); pre-emergent herbicidal activity index [21]: 0 (1-24% control); pre-emergent herbicidal activity index [22]: 0 (1-24% control); pre-emergent herbicidal activity index [23]: 0 (1-24% control)
